Here are results for two compounds from patent US4684630A, “Method of parenterally delivering drugs and related compositions” (priority 1985, dated 1987).

Structures are written as SMILES. Converted amounts (≈) assume the structure as drawn. Like-named read-outs stand apart in the source and are kept apart here.

Series [1] can be described thus: Precipitation on further dilution of the organic-aqueous solutions with sterile intravenous solutions. The format is physicochemical. The settings on record: solutions of Example 3 diluted with 5% dextrose-0.45% saline or 0.9% saline; 250 ml/hr vehicle, 6 ml/hr drug solution, 12 hours. The protocol:
The organic-aqueous solutions of Example 3 are further diluted with two standard sterile intravenous solutions: a 5% dextrose-0.45% saline solution and a 0.9% saline solution. The aqueous delivery vehicles were delivered at a rate of 250 ml/hr. The concentrated drug solutions (approx. 10 mg/ml) were introduced through a side arm tubing located several inches above the injection point for 12 hours at the rate of 6 ml/hr. measured by a calibrated infusion pump. […] At this rate, the effective dosage concentration per unit volume of the final organic-aqueous solution was approximately 1 mg/ml. The final diluted organic-aqueous solutions were filtered using Wattman filter paper.

A short description of another series: physchem. The format is physicochemical. On the procedure:
(§1) Two neat, anhydrous solutions of ara-AC dissolved in DMSO and DMA, respectively, were prepared. […] Ara-AC has a solubility of approximately 20 mg/ml in water. The effective dose for ara-AC is 700 mg. […] At higher temperatures (e.g., 50°-60° C.), the ara-AC has proven stable for at least 3 weeks. Thus, the solutions of ara-AC in DMSO and DMA appear to be stable enough for commercial production, handling, and storage. By contrast, a solution of ara-AC in water would degrade 10% in 1.8 hours at 25° C.

The format of series [2] is physicochemical. The settings on record: for time for which ara-AC has proven stable: neat, higher temperatures (e.g., 50°-60° C.). The protocol:
as §1

Series [3] in a line: Degradation kinetics of ara-AC in aqueous and mixed organic-aqueous solvent systems at 25° C. (reverse phase HPLC).
Where [4] appears, read: Buffer (phosphate 0.01 M, pH 7.0, μ = 0.1 with NaCl), ara-AC 0.25 mg/ml, measured pH 7.0, 25° C.
The mark [5] stands for this setting: Distilled H2O, ara-AC 0.25 mg/ml, measured pH 6.8, 25° C.

`Nc1ncn([C@@H]2O[C@H](CO)[C@@H](O)[C@H]2O)c(=O)n1` [5-AC, 5-azacytidine]: the “precipitation or other undesirable effects” value in series [1] was “No precipitation or other undesirable effects”.

A word on the solubility: it is how much of the substance goes into solution per volume. For `Nc1ncn([C@@H]2O[C@H](CO)[C@@H](O)[C@@H]2O)c(=O)n1` [ara-AC, 5-azacytosine arabinoside], the solubility in “physchem” (dma, organic solvent or mixture) is 170 mg/mL (≈ 696 mM); in the series “physchem” (dmso, organic solvent or mixture) it was 370 mg/mL (≈ 1520 mM); in “physchem” (water), approximately 20 mg/mL (≈ 81.9 mM). For the same compound, in series [2], the “degradation during 5 months” value is on record as “no observable degradation”. The “time for which ara-AC has proven stable” value in series [2] (anhydrous DMA solution) and in series [2] (anhydrous DMSO solution) was “at least 3 weeks” throughout. Besides, the “precipitation or other undesirable effects” value in series [1] was “No precipitation or other undesirable effects”. Besides, the t90 in series [3] (5% DMA in Buffer (phosphate 0.01 M, pH 6.8), ara-AC 5.0 mg/ml, apparent pH 7.0, 25° C.) turned out to be 1.9 h; in series [3] (5% DMSO in Buffer (phosphate 0.01 M, pH 6.8), ara-AC 5.0 mg/ml, apparent pH 7.0, 25° C.), 2.0 h; in series [3] (10% DMA in Buffer (phosphate 0.01 M, pH 6.8), ara-AC 5.0 mg/ml, apparent pH 7.1, 25° C.), 2.2 h; in series [3] (10% DMSO in Buffer, ara-AC 5.0 mg/ml, apparent pH 7.1, 25° C.), 2.5 h; in series [3] (25% DMA in Buffer (phosphate 0.01 M, pH 6.8), ara-AC 5.0 mg/ml, apparent pH 7.4, 25° C.), 2.7 h; in series [3] (25% DMSO in Buffer, ara-AC 5.0 mg/ml, apparent pH 7.4, 25° C.) it was 2.8 h. Moreover, the t90 in series [3] (50% DMA in Buffer (phosphate 0.01 M, pH 6.8), ara-AC 5.0 mg/ml, apparent pH 8.1, 25° C.) is 4.5 h; in series [3] (55% DMA in Buffer (phosphate 0.01 M, pH 6.8), ara-AC 5.0 mg/ml, apparent pH 8.3, 25° C.), 6.0 h; in series [3] (60% DMA in Buffer (phosphate 0.03 M, pH 6.0, μ = 0.3 M with NaCl), ara-AC 5.0 mg/ml, apparent pH 7.4, 25° C.) it was 15.0 h; in series [3] (60% DMSO in Buffer (phosphate 0.03 M, pH 6.0, μ = 0.3 M with NaCl), ara-AC 5.0 mg/ml, apparent pH 7.8, 25° C.) it was 16.0 h; in series [3] (65 wt. % DMA-35 wt. % water solution), 16.0 h; in series [3] (70% DMSO in H2O, ara-AC 5.0 mg/ml, apparent pH 8.0, 25° C.), 28.0 h. The t90 amounted to 28.0 h in series [3] (70 wt % DMSO-30 wt. % water solution), 1.7 h in series [3] (setting [4]) and 1.8 h in series [3] (setting [5]). In addition, the “Kobs (observed degradation rate constant)” value in series [3] (setting [4]) is 1.55 × 10^-2 hr.^-1; in series [3] (setting [5]), 1.34 × 10^-2 hr.^-1. Further, the “t90 (10% decomposition in water)” value in series [3] (water, 25° C.) came to 1.8 h.
